# ChEMBL document CHEMBL5050845, “Enhancers of neurolysin activity” (2020)
# pKi: −log10 of the molar value. Calls of active or inactive are those of the source. The rule behind the calls is not given here. Peptide text beside a SMILES is read from it. * marks the point of attachment. NHPhenethyl = c1ccc(CCN*)cc1; Boc = CC(C)(C)OC(=O)*
# Key:
# Rattus norvegicus [1] = organism: Rattus norvegicus; test: Positive allosteric modulation of recombinant N-terminal poly-His tagged rat neurolysin using Mca-Pro-Leu- Gly-Pro-D-Lys(DNP)-OH as substrate assessed as Amax and measured by fluorescence based assay relative to control
# Rattus norvegicus [2] = organism: Rattus norvegicus; test: Positive allosteric modulation of recombinant N-terminal poly-His tagged rat neurolysin using Mca-Pro-Leu- Gly-Pro-D-Lys(DNP)-OH as substrate and measured by fluorescence based assay
# Mus musculus = organism: Mus musculus; test: Positive allosteric modulation of neurolysin in mouse brain using Mca-Pro-Leu- Gly-Pro-D-Lys(DNP)-OH as substrate and measured by fluorescence based assay relative to control; type: tissue-based; conditions: filed as positive allosteric modulator
# [3] = target: Angiotensin-converting enzyme 2 (Homo sapiens) (UniProt Q9BYF1); test: Inhibition of recombinant N-terminal Met and His-tagged human ACE2 at 300 uM using Mca-Ala-Pro-Lys-(Dnp)-OH as substrate and measured by fluorescence based assay relative to control
# Chain of Angiotensin-converting enzyme 2 (Homo sapiens) (Q9BYF1 18-805 limits assumed): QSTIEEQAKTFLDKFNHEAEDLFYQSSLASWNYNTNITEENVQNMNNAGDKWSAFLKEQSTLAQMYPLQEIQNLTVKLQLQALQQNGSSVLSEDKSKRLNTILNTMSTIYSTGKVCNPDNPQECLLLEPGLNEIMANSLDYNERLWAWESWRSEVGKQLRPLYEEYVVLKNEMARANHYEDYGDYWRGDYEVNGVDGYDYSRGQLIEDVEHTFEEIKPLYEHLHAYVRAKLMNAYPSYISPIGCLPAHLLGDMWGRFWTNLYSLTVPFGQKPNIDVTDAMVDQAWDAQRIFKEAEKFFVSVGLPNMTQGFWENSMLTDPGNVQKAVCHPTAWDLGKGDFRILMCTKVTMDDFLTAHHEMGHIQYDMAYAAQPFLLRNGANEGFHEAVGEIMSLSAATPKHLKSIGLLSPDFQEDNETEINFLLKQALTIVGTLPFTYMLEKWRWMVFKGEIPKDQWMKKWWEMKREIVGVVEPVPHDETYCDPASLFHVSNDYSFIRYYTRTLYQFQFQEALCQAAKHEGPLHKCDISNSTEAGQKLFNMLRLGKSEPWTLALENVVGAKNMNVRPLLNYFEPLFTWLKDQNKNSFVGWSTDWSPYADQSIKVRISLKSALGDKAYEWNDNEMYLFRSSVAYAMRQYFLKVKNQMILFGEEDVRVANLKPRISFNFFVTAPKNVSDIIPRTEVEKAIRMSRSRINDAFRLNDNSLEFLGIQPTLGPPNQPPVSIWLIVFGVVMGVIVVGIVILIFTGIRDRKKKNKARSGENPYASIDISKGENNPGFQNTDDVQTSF
# [4] = target: Angiotensin-converting enzyme (Homo sapiens) (UniProt P12821); test: Inhibition of recombinant C-terminal 10His-tagged human ACE at 300 uM using Mca-Arg-Pro-Pro-Gly-Phe-Ser-Ala-Phe-Lys(Dnp)-OH as substrate and measured by fluorescence based assay relative to control
# Chain of Angiotensin-converting enzyme (Homo sapiens) (P12821 whole entry): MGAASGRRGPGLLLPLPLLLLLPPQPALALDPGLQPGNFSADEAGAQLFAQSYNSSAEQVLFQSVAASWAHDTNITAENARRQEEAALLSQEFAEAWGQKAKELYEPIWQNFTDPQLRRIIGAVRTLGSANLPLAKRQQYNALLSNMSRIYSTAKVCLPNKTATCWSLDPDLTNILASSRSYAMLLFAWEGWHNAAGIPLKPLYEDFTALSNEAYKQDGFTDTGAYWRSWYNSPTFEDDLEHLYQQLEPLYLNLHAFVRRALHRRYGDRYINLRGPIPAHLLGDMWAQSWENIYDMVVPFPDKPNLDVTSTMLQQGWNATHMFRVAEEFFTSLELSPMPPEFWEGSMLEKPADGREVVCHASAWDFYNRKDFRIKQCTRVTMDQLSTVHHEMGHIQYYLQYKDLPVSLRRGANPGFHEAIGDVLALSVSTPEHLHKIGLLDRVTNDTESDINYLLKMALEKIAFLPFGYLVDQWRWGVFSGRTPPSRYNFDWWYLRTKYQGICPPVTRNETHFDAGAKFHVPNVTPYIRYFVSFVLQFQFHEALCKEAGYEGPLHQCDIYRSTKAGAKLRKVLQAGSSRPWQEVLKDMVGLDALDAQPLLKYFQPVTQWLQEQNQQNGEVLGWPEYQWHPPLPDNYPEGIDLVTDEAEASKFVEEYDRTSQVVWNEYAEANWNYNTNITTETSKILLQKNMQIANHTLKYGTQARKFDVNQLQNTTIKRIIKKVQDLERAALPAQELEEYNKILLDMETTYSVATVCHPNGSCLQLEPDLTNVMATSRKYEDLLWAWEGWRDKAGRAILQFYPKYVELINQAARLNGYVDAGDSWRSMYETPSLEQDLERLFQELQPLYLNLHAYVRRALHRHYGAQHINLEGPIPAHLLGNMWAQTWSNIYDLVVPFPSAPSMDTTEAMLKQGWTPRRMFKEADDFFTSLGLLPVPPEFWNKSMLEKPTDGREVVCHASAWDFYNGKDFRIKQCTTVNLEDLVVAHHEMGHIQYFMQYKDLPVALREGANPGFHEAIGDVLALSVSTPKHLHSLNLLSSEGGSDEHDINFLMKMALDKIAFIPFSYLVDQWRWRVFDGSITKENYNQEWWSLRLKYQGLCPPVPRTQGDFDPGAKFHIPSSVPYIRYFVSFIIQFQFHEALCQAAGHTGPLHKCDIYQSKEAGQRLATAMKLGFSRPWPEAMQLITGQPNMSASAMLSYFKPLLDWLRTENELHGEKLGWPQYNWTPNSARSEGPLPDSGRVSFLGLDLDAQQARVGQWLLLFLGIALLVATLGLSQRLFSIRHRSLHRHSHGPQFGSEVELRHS
# Rattus norvegicus [5] = organism: Rattus norvegicus; test: Positive allosteric modulation of catalytic activity of recombinant N-terminal poly-His tagged rat neurolysin at 40 uM assessed as Km measured fluorescence assay; conditions: filed as positive allosteric modulator
# Rattus norvegicus [6] = organism: Rattus norvegicus; test: Positive allosteric modulation of catalytic activity of recombinant N-terminal poly-His tagged rat neurolysin assessed as effect on fluorescence signal of Mca-Pro-Leu-OH and measured fluorescence assay
# Homo sapiens [7] = organism: Homo sapiens; test: Positive allosteric modulation of recombinant N-terminal Met and His-tagged human neurolysin using Mca-Pro-Leu- Gly-Pro-D-Lys(DNP)-OH as substrate and measured by fluorescence based assay relative to control; conditions: filed as positive allosteric modulator
# Homo sapiens [8] = organism: Homo sapiens; test: Inhibition of recombinant N-terminal Met and His-tagged human Thimet oligopeptidase at 300 uM using Mca-Pro-Leu-Gly-Pro-D-Lys(DNP)-OH as substrate and measured by fluorescence based assay relative to control
# Rattus norvegicus [9] = organism: Rattus norvegicus; test: Positive allosteric modulation of catalytic activity of recombinant N-terminal poly-His tagged rat neurolysin at 100 uM assessed as Km measured fluorescence assay; conditions: filed as positive allosteric modulator
# Rattus norvegicus [10] = organism: Rattus norvegicus; test: Positive allosteric modulation of catalytic activity of recombinant N-terminal poly-His tagged rat neurolysin using Mca-Pro-Leu- Gly-Pro-D-Lys(DNP)-OH as substrate in presence of 1 uM dynoprhin A (1 to 13) and measured by fluorescence based assay relative to control; conditions: filed as positive allosteric modulator
# Rattus norvegicus [11] = organism: Rattus norvegicus; test: Positive allosteric modulation of catalytic activity of recombinant N-terminal poly-His tagged rat neurolysin using Mca-Pro-Leu- Gly-Pro-D-Lys(DNP)-OH as substrate and measured by fluorescence based assay relative to control; conditions: filed as positive allosteric modulator
# Rattus norvegicus [12] = organism: Rattus norvegicus; test: Positive allosteric modulation of catalytic activity of recombinant N-terminal poly-His tagged rat neurolysin at 100 uM assessed as Vmax as fluorescent unit/ng protein measured fluorescence assay; conditions: filed as positive allosteric modulator
# [13] = target: Neprilysin (Homo sapiens) (UniProt P08473); test: Inhibition of recombinant N-terminal 6His-tagged human neprilysin expressed in CHO cells at 300 uM using Mca-Arg-Pro-Pro-Gly-Phe-Ser-Ala-Phe-Lys(Dnp)-OH as substrate and measured by fluorescence based assay relative to control
# Chain of Neprilysin (Homo sapiens) (P08473 whole entry): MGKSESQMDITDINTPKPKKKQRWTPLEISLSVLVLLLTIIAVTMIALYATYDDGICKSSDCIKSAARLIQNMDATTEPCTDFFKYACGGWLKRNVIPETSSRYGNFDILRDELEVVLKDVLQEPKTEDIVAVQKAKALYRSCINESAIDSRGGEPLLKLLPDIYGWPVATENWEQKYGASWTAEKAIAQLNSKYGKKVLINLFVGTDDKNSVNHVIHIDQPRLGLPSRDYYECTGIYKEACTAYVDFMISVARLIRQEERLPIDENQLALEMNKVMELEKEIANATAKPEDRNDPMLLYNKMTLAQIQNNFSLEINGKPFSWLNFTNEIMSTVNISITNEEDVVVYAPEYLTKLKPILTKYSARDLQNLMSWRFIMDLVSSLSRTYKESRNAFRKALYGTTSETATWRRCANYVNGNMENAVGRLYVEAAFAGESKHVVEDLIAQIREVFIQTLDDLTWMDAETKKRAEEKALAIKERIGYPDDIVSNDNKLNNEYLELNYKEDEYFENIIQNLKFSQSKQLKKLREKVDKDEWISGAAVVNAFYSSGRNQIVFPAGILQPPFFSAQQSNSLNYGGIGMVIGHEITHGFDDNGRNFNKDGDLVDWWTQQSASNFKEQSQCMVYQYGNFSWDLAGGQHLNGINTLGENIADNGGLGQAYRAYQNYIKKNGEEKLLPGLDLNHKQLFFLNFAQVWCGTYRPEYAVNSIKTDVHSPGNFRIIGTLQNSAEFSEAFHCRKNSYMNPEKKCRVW
# Rattus norvegicus [14] = organism: Rattus norvegicus; test: Positive allosteric modulation of catalytic activity of recombinant N-terminal poly-His tagged rat neurolysin at 40 uM assessed as Vmax as fluorescent unit/ng protein and measured fluorescence assay; conditions: filed as positive allosteric modulator
# [15] = Inhibition of recombinant N-terminal poly-His tagged rat neurolysin using Mca-Pro-Leu- Gly-Pro-D-Lys(DNP)-OH as substrate in presence of 100 uM NSC 523374 and measured by fluorescence based assay relative to control
# [16] = Inhibition of recombinant N-terminal poly-His tagged rat neurolysin using Mca-Pro-Leu- Gly-Pro-D-Lys(DNP)-OH as substrate in presence of 100 uM NSC 374121 and measured by fluorescence based assay relative to control
# Rattus norvegicus [17] = organism: Rattus norvegicus; test: Positive allosteric modulation of recombinant N-terminal poly-His tagged rat neurolysin at 100 uM assessed fold increase in formation of bradykinin (1 to 5) from bradykinin and measured by mass spectrometry analysis; conditions: filed as positive allosteric modulator
# Rattus norvegicus [18] = organism: Rattus norvegicus; test: Positive allosteric modulation of recombinant N-terminal poly-His tagged rat neurolysin at 100 uM assessed fold increase in formation of neurotensin (1 to 10) from neurotensin and measured by mass spectrometry analysis; conditions: filed as positive allosteric modulator
# Rattus norvegicus [19] = organism: Rattus norvegicus; test: Positive allosteric modulation of recombinant N-terminal poly-His tagged rat neurolysin at 100 uM assessed fold increase in formation of angiotensin (1 to 7) from angiotensin I and measured by mass spectrometry analysis; conditions: filed as positive allosteric modulator
# [20] = filed as positive allosteric modulator
smiles,measurement,setting,value
N[C@H](Cc1c[nH]cn1)C(=O)NCCc1ccccc1,Emax,Rattus norvegicus [1]; [20],407%
COc1ccc(CCNC(=O)[C@@H](N)Cc2c[nH]cn2)cc1,Emax,Rattus norvegicus [1]; [20],544%
CC(C)(C)OC(=O)N[C@@H](Cc1c[nH]cn1)C(=O)NCCc1cc2ccccc2[nH]1,A50,Rattus norvegicus [2],inactive
same,Emax,Rattus norvegicus [1],inactive
CC(C)(C)OC(=O)N[C@@H](Cc1c[nH]cn1)C(=O)N[C@@H](Cc1ccccc1)C(=O)O (Boc-His-Phe-OH),A50,Rattus norvegicus [2],inactive
same,Emax,Rattus norvegicus [1],inactive
N[C@@H](Cc1c[nH]cn1)C(=O)NCc1ccc(C(F)(F)F)cc1,Emax,Rattus norvegicus [1]; [20],305%
N[C@@H](Cc1c[nH]cn1)C(=O)NCc1cccc2ccccc12,Emax,Rattus norvegicus [1]; [20],264%
CC(C)(C)OC(=O)N[C@@H](Cc1c[nH]cn1)C(=O)NCCc1c[nH]c2ccccc12,A50,Rattus norvegicus [2],inactive
same,Emax,Rattus norvegicus [1],inactive
N[C@H](Cc1c[nH]cn1)C(=O)NCc1cccc2ccccc12,Emax,Rattus norvegicus [1]; [20],343%
N[C@@H](Cc1c[nH]cn1)C(=O)NCc1ccc2ccccc2c1,A50,Rattus norvegicus [2]; [20],12.3 µM
same,Emax,Rattus norvegicus [1]; [20],262%
COc1cccc(CCNC(=O)[C@H](N)Cc2c[nH]cn2)c1,Emax,Rattus norvegicus [1]; [20],255%
N[C@@H](Cc1c[nH]cn1)C(=O)N[C@@H](Cc1ccccc1)C(=O)NCCc1ccccc1 (H-His-Phe-NHPhenethyl),A50,Rattus norvegicus [2]; [20],5.4 µM
same,Emax,Rattus norvegicus [1]; [20],178%
N[C@@H](Cc1c[nH]cn1)C(=O)NCc1ccc(F)cc1,Emax,Rattus norvegicus [1]; [20],252%
N[C@H](Cc1c[nH]cn1)C(=O)NCc1ccc(C(F)(F)F)cc1,Emax,Rattus norvegicus [1]; [20],599%
N[C@H](Cc1c[nH]cn1)C(=O)NCCc1ccc(C(F)(F)F)cc1,Emax,Rattus norvegicus [1]; [20],643%
N[C@@H](Cc1c[nH]cn1)C(=O)N[C@H](Cc1cc2ccccc2[nH]1)C(=O)O,Emax,Rattus norvegicus [1]; [20],440%
NC(Cc1c[nH]cn1)C(=O)NC(Cc1c[nH]cn1)C(=O)O (stereo not drawn),Emax,Mus musculus,258%
same,inhibition,[3],10.9%
same,inhibition,[4],12.2%
same,Km,Rattus norvegicus [5],8 µM
same,Activity,Rattus norvegicus [6],inactive
same,Emax,Homo sapiens [7],214%
same,inhibition,Homo sapiens [8],15.6%
same,Km,Rattus norvegicus [9],6.1 µM
same,Emax,Rattus norvegicus [10],198%
same,Emax,Rattus norvegicus [11],203%
same,Vmax,Rattus norvegicus [12],148 min⁻¹
same,inhibition,[13],1.6%
same,Vmax,Rattus norvegicus [14],112 min⁻¹
N[C@H](Cc1c[nH]cn1)C(=O)NCCc1ccccc1C(F)(F)F,Emax,Rattus norvegicus [1]; [20],396%
O=C1NC(Cc2c[nH]cn2)C(=O)N2CCCC12 (stereo not drawn),A50,Rattus norvegicus [2],inactive
same,Emax,Rattus norvegicus [1],inactive
N[C@@H](Cc1c[nH]cn1)C(=O)Nc1ccccc1,A50,Rattus norvegicus [2]; [20],7.74 µM
same,Emax,Rattus norvegicus [1]; [20],140%
N[C@@H](Cc1c[nH]cn1)C(=O)NCCc1cc2ccccc2[nH]1,Emax,Rattus norvegicus [1]; [20],259%
N[C@@H](Cc1c[nH]cn1)C(=O)NCc1ccccc1C(F)(F)F,Emax,Rattus norvegicus [1]; [20],334%
N[C@@H](Cc1c[nH]cn1)C(=O)NCCc1ccccc1,Emax,Rattus norvegicus [1]; [20],231%
N[C@@H](Cc1c[nH]cn1)C(=O)NCCc1ccc(F)cc1,A50,Rattus norvegicus [2]; [20],27.9 µM
same,Emax,Rattus norvegicus [1]; [20],323%
COc1ccc(CNC(=O)[C@@H](N)Cc2c[nH]cn2)cc1,Emax,Rattus norvegicus [1]; [20],429%
N[C@@H](Cc1ccccn1)C(=O)NCCc1ccccc1,A50,Rattus norvegicus [2],inactive
same,Emax,Rattus norvegicus [1],inactive
N[C@H](Cc1c[nH]cn1)C(=O)NCCc1ccc2ccccc2c1,Emax,Rattus norvegicus [1]; [20],340%
COc1ccccc1CNC(=O)[C@H](N)Cc1c[nH]cn1,Emax,Rattus norvegicus [1]; [20],325%
COc1ccc(CNC(=O)[C@H](N)Cc2cnc[nH]2)cc1,Emax,Rattus norvegicus [1]; [20],704%
N[C@@H](Cc1c[nH]cn1)C(=O)N1CCCC1,Emax,Rattus norvegicus [1]; [20],173%
CC[C@H](C)[C@H](NC(=O)[C@H](CCCNC(=N)N)NC(=O)[C@H](CCCNC(=N)N)NC(=O)[C@H](CC(C)C)NC(=O)[C@H](Cc1ccccc1)NC(=O)CNC(=O)CNC(=O)[C@@H](N)Cc1ccc(O)cc1)C(=O)N[C@@H](CCCNC(=N)N)C(=O)N1CCC[C@H]1C(=O)N[C@@H](CCCCN)C(=O)N[C@@H](CC(C)C)C(=O)N[C@@H](CCCCN)C(=O)O [ANALOG OF DYNORPHIN A],pKi,[15],6.22
same,pKi,[16],6.15
NC(Cc1c[nH]cn1)C(=O)NCCc1cc2ccccc2[nH]1 (racemic),Emax,Rattus norvegicus [1]; [20],311%
N[C@@H](Cc1cnc[nH]1)C(=O)N[C@@H](Cc1ccc(O)cc1)C(=O)O (H-His-Tyr-OH),Emax,Rattus norvegicus [1]; [20],467%
N[C@@H](Cc1c[nH]cn1)C(=O)NCCc1ccc2ccccc2c1,Emax,Rattus norvegicus [1]; [20],324%
O=C(CCc1cnc[nH]1)NCCc1c[nH]c2ccccc12,A50,Rattus norvegicus [2],inactive
same,Emax,Rattus norvegicus [1],inactive
NC(Cc1c[nH]cn1)C(=O)NC(Cc1ccc(O)cc1)C(=O)O (stereo not drawn) (H-His-Tyr-OH; configuration not given here),Emax,Mus musculus,190%
same,inhibition,[3],13.4%
same,fold change (FC),Rattus norvegicus [17],2
same,inhibition,[4],22.6%
same,Km,Rattus norvegicus [5],7.9 µM
same,Activity,Rattus norvegicus [6],inactive
same,fold change (FC),Rattus norvegicus [18],3
same,Emax,Homo sapiens [7],204%
same,inhibition,Homo sapiens [8],25.9%
same,Km,Rattus norvegicus [9],6.4 µM
same,Emax,Rattus norvegicus [10],238%
same,fold change (FC),Rattus norvegicus [19],6
same,Emax,Rattus norvegicus [11],235%
same,Vmax,Rattus norvegicus [12],165 min⁻¹
same,inhibition,[13],2.9%
same,Vmax,Rattus norvegicus [14],124 min⁻¹
N[C@H](Cc1c[nH]cn1)C(=O)NCCc1cc2ccccc2[nH]1,Emax,Rattus norvegicus [1]; [20],132%
N[C@@H](Cc1c[nH]cn1)C(=O)NCc1cccc(C(F)(F)F)c1,Emax,Rattus norvegicus [1]; [20],494%
N[C@@H](Cc1cnc[nH]1)C(=O)N[C@@H](Cc1ccccc1)C(=O)O (H-His-Phe-OH),A50,Rattus norvegicus [2]; [20],130 µM
same,Emax,Rattus norvegicus [1]; [20],573%
CC(C)(C)OC(=O)N[C@@H](Cc1c[nH]cn1)C(=O)NCCc1ccccc1,A50,Rattus norvegicus [2],inactive
same,Emax,Rattus norvegicus [1],inactive
N[C@H](Cc1cnc[nH]1)C(=O)NCc1cccc(C(F)(F)F)c1,Emax,Rattus norvegicus [1]; [20],184%
N[C@@H](Cc1c[nH]cn1)C(=O)NCc1ccccc1,Emax,Rattus norvegicus [1]; [20],152%
N[C@@H](Cc1c[nH]cn1)C(=O)NCCc1ccc(C(F)(F)F)cc1,Emax,Rattus norvegicus [1]; [20],438%
COc1cccc(CNC(=O)[C@H](N)Cc2cnc[nH]2)c1,Emax,Rattus norvegicus [1]; [20],477%
